In one test the test system is BT-474 xenograft tumors. The test can be described thus: Orthotopic human BT-474 breast cancer xenograft model. Format: in vivo, mouse. The following applies: antibodies 30 mg/kg, lapatinib 100 mg/kg oral. As for the experimental part: Orthotopic xenografts were established by injecting 1×10^7 cells per mouse (suspended in 50% matrigel) into the mammary fat pad on the right flank of 4 to 6-week-old athymic nu/nu mice. Estrogen pellets (0.36 mg) were placed under the skin of the left flank 1-2 days before cell injection. […] Lapatinib was administered by oral gavaging at 100 mg per kilogram body weight. Caliper measurements were used to calculate tumor volumes using the formula: tumor volume=π÷6(length×width×width) • for tumors grown in mice.

The test system of test [1] is MDA-MB-361 xenograft tumors. Kind of test: Orthotopic human MDA-MB-361 breast cancer xenograft model. The conditions noted are these: 2C2-YTE 30 mg/kg, trastuzumab and rhuMAb 2C4 10 mg/kg, lapatinib 100 mg/kg twice daily. The test is classed as in vivo, mouse. As for the experimental part:
(§1) Orthotopic xenografts were established by injecting 5×10^6 cells per mouse (suspended in 50% matrigel) into the mammary fat pad on the right flank of 4 to 6-week-old athymic nu/nu mice. Estrogen pellets (0.36 mg) were placed under the skin of the left flank 1-2 days before cell injection. […] Lapatinib was administered by oral gavaging at 100 mg per kilogram body weight. Caliper measurements were used to calculate tumor volumes using the formula: tumor volume=π÷6(length×width×width) • for tumors grown in mice.

The test system of the next test is SkBR3 cells. Kind of test: CDC assay with human serum as source of complement. The test is classed as cell-based. The conditions noted are these: any concentration, data not shown. From the text: ADCC is one recognized way through which a monoclonal antibody can confer its anti-tumor efficacy in vivo.
Another test relates to Daudi cells. Kind of test: CDC assay against Daudi cells. The test is classed as cell-based. The following applies: CD20-expressing cells, data not shown. As for the experimental part: ADCC is one recognized way through which a monoclonal antibody can confer its anti-tumor efficacy in vivo. […] 2C2-YTE was tested in CDC assays using human serum as a source of complement.

Test [2] has as its system HER3, pHER3 and pAKT in SW620, SW480, Colo205, LOVO, HCT15 and Caco-2 cells. The test can be described thus: HRG ligand-dependent signaling in CRC tumor cell lines (Western blot). The following applies: antibodies 10 μg/mL, gefitinib 5 μM, HRG 50 ng/mL. Format: cell-based, human. As for the experimental part: In the presence of the HER3 ligand heregulin (HRG), HER3 heterodimerizes with EGFR or HER2, which leads to phosphorylation of HER3 and transmission of an oncogenic signal via phosphoinositide 3 kinase (PI3K) and protein kinase B (PKB), also known as AKT. A collection of CRC models were characterized to determine which receptor tyrosine kinase, EGFR or HER2, is the major driver of signaling through HER3. […] Briefly, cells were seeded into 24-well plates at a density of 1.5×10^5 cells per well. […] After 5-6 hours of incubation at 37° C., HRG was added at 50 ng/mL into one set of cells for 15 minutes at 37° C. All cells were then washed with cold PBS and lysed by the addition of 60 μL of 2×SDS (sodium dodecyl sulfate) sample buffer (Invitrogen). Lysates were transferred to 1.5 mL tubes and boiled for 5 minutes followed by chilling on ice for 2 minutes. Equal volumes (20 μL) of protein samples were resolved in NuPAGE Novex Bis-Tris gels (Invitrogen) before transfer to polyvinylidene fluoride (PVDF) membranes (Invitrogen). […] After washing, protein bands were detected on X-ray film by using SuperSignal West Pico Chemiluminescent Substrate (Pierce/Thermo Scientific).

In a further test the test system is MCF-7 xenograft tumors. Kind of test: Orthotopic human MCF-7 breast cancer xenograft model. Format: in vivo, mouse. The conditions noted are these: antibodies 10 mg/kg, paclitaxel 10 mg/kg i.v. every second day for ten days. As for the experimental part:
as §1, with “Human MCF-7 breast cancer cells were maintained at 37° C. in a 5% CO2 incubator in Optimem medium containing glutamax, 2.4/L sodium bicarbonate, Hepes and 5% fetal bovine serum. Orthotopic” for “Orthotopic”, “Paclitaxel” for “Lapatinib”, “intravenously” for “by oral gavaging”, “10” for “100”

With `CS(=O)(=O)CCNCc1ccc(-c2ccc3ncnc(Nc4ccc(OCc5cccc(F)c5)c(Cl)c4)c3c2)o1` [lapatinib], the Anti-tumor efficacy entry in the test on BT-474 xenograft tumors was “tumor stasis”; in test [1], “showed anti-tumor efficacy”. For the compound rituximab [reference compound], the CDC activity entry in the test with SkBR3 cells was “None of the antibodies including 2C2-YTE showed any detectable CDC activity”; in the test with Daudi cells it was “substantial cell-kill activity”. For `COc1cc2ncnc(Nc3ccc(F)c(Cl)c3)c2cc1OCCCN1CCOCC1` [gefitinib], the “HRG ligand-dependent signaling (HER3, pHER3, pAKT)” value in test [2] is “no effect”. Regarding pertuzumab [rhuMAb 2C4], the “HRG ligand-dependent signaling (HER3, pHER3, pAKT)” value in test [2] is reported as “inhibit HRG ligand-dependent signaling”. Besides, the Anti-tumor efficacy result in test [1] is recorded as “showed anti-tumor efficacy”. Regarding `CC(=O)O[C@H]1C(=O)[C@@]2(C)[C@H]([C@H](OC(=O)c3ccccc3)[C@]3(O)C[C@H](OC(=O)[C@H](O)[C@@H](NC(=O)c4ccccc4)c4ccccc4)C(C)=C1C3(C)C)[C@]1(OC(C)=O)CO[C@@H]1C[C@@H]2O` [paclitaxel], the Anti-tumor efficacy entry with MCF-7 xenograft tumors is on record as “clear anti-tumor efficacy”.

The record behind these values is US9220775B2, “Binding molecules specific for HER3 and uses thereof” (Medlmmune LLC, priority 2011, dated 2015).
